Converted amounts (≈) assume the structure as drawn.
Experiments:
Candida albicans = assay: Antimicrobial activity against Candida albicans ATCC 36082 incubated for 2 days at 35 degC by CLSI protocol based method; type: functional; settings: ATCC 36082, 48 h
[1] = Toxicity in human erythrocytes assessed as induction of hemolysis incubated for 18 hrs; type: cell-based, Erythrocyte
[2] = Induction of potassium influx in sterol-free and cholesterol and ergosterol-containing POPC liposomes at 32 uM by BCECF dye based fluorimetric assay; type: physicochemical
[3] = Toxicity in human erythrocytes assessed as induction of hemolysis at 15 uM incubated for 18 hrs; type: cell-based, Erythrocyte; settings: read-out: Activity

Compound | MIC (Candida albicans) [µM] | HC50 at 18 h [1] [µM] | Activity [2] | hemolysis at 18 h, 15 µM [3] [%]
C[C@@H]1[C@H](O)[C@@H](C)/C=C/C=C/C=C/C=C/C=C/C=C/C=C/[C@H](O[C@@H]2O[C@H](C)[C@@H](O)[C@H](N)[C@@H]2O)C[C@@H]2O[C@](O)(C[C@@H](O)C[C@@H](O)[C@H](O)[C@@H](O)C[C@@H](O)C[C@@H](O)CC(=O)O[C@H]1C)C[C@H](O)[C@H]2C(=O)O | 1 (≈ 0.94 µg/mL) | 6.9 | Not Active | –
C[C@@H]1[C@H](O)[C@@H](C)/C=C/C=C/C=C/C=C/C=C/C=C/C=C/[C@H](O[C@@H]2O[C@H](C)[C@@H](O)[C@H](N)[C@@H]2O)C[C@@H]2O[C@](O)(C[C@@H](O)C[C@@H](O)[C@H](O)C(=O)C[C@@H](O)C[C@@H](O)CC(=O)O[C@H]1C)C[C@H](O)[C@H]2C(=O)O | 2 (≈ 1.88 µg/mL) | > 15 | Not Active | 10
C[C@@H]1[C@H](O)[C@@H](C)/C=C/C=C/C=C/C=C/C=C/C=C/C=C/[C@H](O[C@@H]2O[C@H](C)[C@@H](O)[C@H](N)[C@@H]2O)C[C@@H]2O[C@](O)(C[C@@H](O)C[C@@H](O)[C@H](O)CC[C@@H](O)C[C@@H](O)CC(=O)O[C@H]1C)C[C@H](O)[C@H]2C(=O)O [AMPHOTERICIN B] | 0.25 (≈ 0.231 µg/mL) | 3.2 | Active | –
C[C@@H]1[C@H](O)[C@@H](C)/C=C/C=C/C=C/C=C/C=C/C=C/C=C/[C@H](O[C@@H]2O[C@H](C)[C@@H](O)[C@H](N)[C@@H]2O)C[C@@H]2O[C@](O)(C[C@@H](O)C[C@@H](O)[C@H](O)[C@H](O)C[C@@H](O)C[C@@H](O)CC(=O)O[C@H]1C)C[C@H](O)[C@H]2C(=O)O | 4 (≈ 3.76 µg/mL) | 5.4 | Not Active | –

Source: ChEMBL document CHEMBL3603791, “Role of polyol moiety of amphotericin B in ion channel formation and sterol selectivity in bilayer membrane” (Bioorg Med Chem, 2015)
